Data taken from patent publication US7303752B2, “Hookworm vaccine” (The George Washington University, priority 2001, dated 2007).
Where “and” joins values, the source holds several entries; their conditions need not be identical. Identical values can stand only once.

Columns and labels:
Format in all cases: in vivo, dog
[1] = test system: A. caninum; test: Canine vaccine trial with Ac-TMP, Ac-AP, Ac-APR-1, oral challenge with 400 A. caninum L3
Excerpt: Study dogs and animal husbandry: Following protocol approval by The George Washington University Institutional Animal Care and Use Committee (IACUC), purpose bred, parasite naïve, male beagles 8±1 week of age were purchased, identified by ear tattoo, and maintained in the AALAC (Association for Assessment and Accreditation of Laboratory Animal Care) accredited George Washington University Animal Research Facility. The dogs were housed in a room dedicated for the study, at a room temperature of 70±4° F., with 10-15 air changes per hour comprised of 100 percent fresh air, and 12 hr light cycles alternating with 12 hr dark cycles. The airflow and timer functions were monitored daily. The dogs were fed on a diet of Teklad Certified Dog Chow #8727, supplemented with a canned soft diet in the event of anorexia. The drinking water was piped from a filter plant and delivered via automatc water system; water analysis was performed by the U.S. Army Corps of Engineers. Water from the facilities automatic system is cultured for bacteria and fungi annually. The pens were flushed daily and sanitized every two weeks. Dogs within a given study group were permitted to live together and socialize prior to the hookworm larval challenge, but were caged individually post-infection. All dogs were quarantined for approximately one week before beginning the vaccine trial. Prior to vaccination a complete blood count (CBC), serum chemistries, and a pre-vaccination serum sample were obtained.
Vaccine study design and sample size: The vaccine trial was designed to test three different antigens, each formulated with alum, as well as an alum adjuvant control. A total of 24 dogs were randomly assigned into four groups comprised of 6 dogs each. The canine sample size was selected on the ability to detect a 40-50 percent reduction in the numbers of adult hookworms in the small intestines of the vaccinated group relative to control dogs, at a statistical power of 80 percent (alpha=0.05, two-tailed). The data were derived from the mean and standard deviation of adult hookworms previously recovered from age-matched dogs infected with 400 A. caninum L3 (Hotez et al, 2002).
Recombinant Antigens: Each group of 6 dogs was vaccinated with recombinant hookworm proteins expressed as fusion proteins either in Escherichia coli or in an insect cell line with baculovirus. Ac-AP (Cappello et al, 1995; 1996) and Ac-TMP, were expressed in E. coli as pET 28 (Novagen) fusion proteins containing a polyhistidine tag (Cappello et al, 1996). Ac-APR-1 (Harrop et al, 1996) was expressed in a baculovirus pBacPAK6 vector (Clontech), modified to contain a polyhistidine-encoding sequence and additional restriction enzyme sites (Brindley et al, 2001). Recombinant Ac-AP and Ac-TMP fusion proteins were then purified by nickel affinity chromatography, followed by a second step of purification. In the case of Ac-AP (Cappello et al, 1995; 1996), the recombinant protein was purified by mono-S (Amersham-Pharmacia) ion exchange chromatography, while Ac-TMP (Zhan et al, 2002) was purified by superdex 75 (Amersham-Pharmacia) gel filtration chromatography. Ac-APR-1 (Harrop et al, 1996) was purified by substrate affinity chromatography using pepstatin agarose (Brindley et al, 2001). The antigen stock protein concentration was determined by Pierce Micro BCA assay (Pierce Chemicals) or by the absorbance of the sample at […] using an extinction coefficient that was calculated from the deduced amino acid composition of the fusion protein. The amount of alum adsorbed protein in each dose of antigen was measured by the Pierce Micro BCA assay using a bovine serum albumin standard. The relative purity of each of the antigens relative to contaminating E. coli or insect cell proteins was determined by analysis on sodium dodecyl sulfate polyacrylamide gel electrophoresis (SDS-PAGE). […]

[2] = test system: antibody to recombinant proteins; test: Pre-challenge antibody titer ELISA, trial with Ac-ASP-2, Ac-API, Ac-MEP-1, Ac-APR-1 in AS03
Protocol: (§1) The vaccine trial was designed to test Ac-API, Ac-ASP-2, Ac-MEP-1, Ac-APR-1 formulated with Adjuvant System 03 (AS03) obtained from GlaxoSmithKline (GSK). The rationale for selecting AS03 as an adjuvants is discussed elsewhere (Stoute et al, 1997). The ten purpose bred beagles were randomized into five arms: immunized with the adjuvant-formulated recombinant proteins or adjuvant only (control). To make six doses of antigen formulated with AS03, […] of recombinant protein (0.3 ml of antigen at a concentration of 2 mg.ml^−1) was mixed with 1.2 ml of 20 mM Tris-HCl, 0.5 M NaCl, pH 7.9 and 1.5 ml of AS03; the contents of the tube were vortex mixed for 30 seconds then shaken at low speed for 10 minutes. Dogs were immunized with 100 g of formulated antigen in a final volume of 0.5 ml. ASO3 only control was prepared as described above, with PBS included instead of antigen. Formulation of GSK adjuvants were conducted according to the protocol provided by GSK. All injections were performed intramuscularly (IM). Test and control articles were prepared on the day of injection. All animals received 4 immunizations approximately 3 weeks apart.
Beagles were immunized with formulated Ac-ASP-2 as previously described (Loukas et al, 2004). The vaccines were administered IM three times beginning at age 62+/−4 days. Boosts were administered to the dogs at intervals of 21 days. Blood was drawn at least once every 21 days and serum was separated from cells by centrifugation. Each animal's specific antibody response was evaluated by indirect ELISA using serum taken prior to the infective challenge (Loukas et al, 2004). Recombinant Ac-ASP-2 was coated onto microtiter plates at a concentration of 5 g.ml^−1. Dog sera were titrated between 1:100 and 1:2×10^6 to determine endpoint titers. Anti-canine IgG1, IgG2 and IgE antibodies conjugated to horse-radish peroxidase (Bethyl Laboratories) were used at a dilution of 1:1,000.

[3] = test system: A. caninum; test: Canine vaccine trial with Ac-ASP-2, Ac-API, Ac-MEP-1, Ac-APR-1 in AS03, footpad challenge with 500 A. caninum L3
Protocol: as §1, with “The ten purpose bred beagles were randomized into five arms: immunized with the adjuvant-formulated recombinant proteins or adjuvant only (control).” left out
A. caninum larvae were cultured from eggs collected in the feces of infected dogs. All hookworms in the infective challenge were approximately equal age (17±7 days post hatching). The species identity of the infective larvae were validated using PCR. All dogs were infected by the footpad method with the same dose of 500 L3 of A. caninum (Zhan et al, 2001). Larval challenge occurred on one of three consecutive days (at age 120+/−9 days). Fourteen-sixteen days after the final immunization, dogs were anesthetized using a combination of ketamine and xylazine (20 mg.kg^−1 and 10 mg.kg^−1 respectively), and 500 A. caninum L3 in a final volume of […] were applied to the footpad.

[4] = test system: antigen-specific IgG1 and IgG2; test: Antibody titers in HV-12 (Ac-CYS, Ac-MTP-2, Ac-GST in AS03, irradiated L3)
Protocol: (§2) Brief Outline of Study Sections: Purpose bred beagles were randomized into five groups. […] groups were given one of three candidate vaccines: Ac-Cystatin, Ac-MTP-2 and Ac-GST in combination with the adjuvant ASO3. One group will serve as the negative control receiving the adjuvant only. Another group will be a positive control immunized with irradiated infective larvae. Each animal's specific antibody response was evaluated by direct ELISA using serum taken prior to the infective challenge. Cellular immune responses were assessed by peripheral (blood cells) lymphoproliferative responses to specific recombinant antigens and/or crude extract of infective larvae (L3) or adult worms. Local cellular immune responses were performed post mortem with lymphocytes extracted from mesenteric lymph nodes and, if considered, spleen. After immunization, animals were challenged with a known number dose of infective third stage larvae of A. caninum. Quantitative ova counts, used to evaluate worm burden, were determined from fecal samples collected three times per week. […] Tissues from different organs were examined macro and microscopically to assess any consequence of the vaccine, parasite or immune related lesions.
(§3) Administration of Test and Control Articles: The vaccines and adjuvant were administered intramuscularly (IM) […] beginning when the dogs are 62+/−4 days old. The vaccines are boosted at 21+/−3-day intervals. Four doses of the vaccines were given 21 days apart (days 0, 21, 42, and […]). The dogs were challenged percutaneously with 500 A. caninum L3, 14 days after the final vaccination.
Serum Samples for Quantitative ELISA Antibody Titers: Animals treated with vaccines containing foreign proteins develop an immune response resulting in an increased level of high affinity serum antibodies that are directed against the antigen. […] White blood cells were collected for immunological measurements nine (9) days after the last boost and at the time of euthanasia to address the cellular immune response status and cytokine production upon in vitro restimulation of lymphocytes.

[5] = test system: A. caninum; test: Canine vaccine trial HV-12, percutaneous challenge with 500 A. caninum L3
Protocol: as §2, §3
Challenge Infection: Ancylostoma caninum larvae were cultured from the eggs collected in the feces of infected dogs. All hookworms in the infective challenge were approximately equal age (17±7 days). The species identity of the infective larva dose were validated using PCR DNA amplification and specific oligonucleotide primers. Overnight-collected feces of A. caninum-infected dogs were cultured, extracted and counted. All dogs were infected by the footpad method with the same dose (500+/−5%, of 3rd stage larvae of A. caninum. Larval challenge occurs on one of three consecutive days (at age 120+/−9 days) in 5 series. To minimize the difference in the infective L3 doses, each series included one dog from each (A-E group). […]
Adult Worm Count. Adult worms retained in the small and large intestines were collected. The small and large bowel will be collected and the small intestine will be suspended (the large bowel will not be suspended) in a container and incubated for at least two hours at 35° C. saline to collect the adult parasites. The adult worms were separated from the intestinal contents, counted, and preserved in formalin for subsequent count and analysis of sex, length and weight. Results and Analysis

Molecule: Ac-APR-1: A. caninum aspartic protease (cathepsin), SEQ ID NO: 50; baculovirus expressed
- % Decrease of adult hookworms in the small intestines relative to alum-injected dogs ([1]; group): 18%
- % Increase of adult hookworms in the colons relative to alum-injected dogs ([1]; group): 300%
- adult A. caninum hookworms in the colons, Median ([1]; group median, alum control 4): 27
- adult hookworms in the small intestines, Median ([1]; group median, alum control 180): 138
- ratio of adult hookworms in the small intestine relative to the colon ([1]; vaccinated group, alum-injected dogs 43.9): 7.3
- antibody response, in words ([2]; AS03): only a single dog developed a substantial antibody titer
- Pre-challenge antibody titer, IgG1, GEOMEAN ([2]; geometric mean of group): 100
- Pre-challenge antibody titer, IgG2, GEOMEAN ([2]; geometric mean of group): 562
- Pre-challenge antibody titer, IgG1 ([2]; individual dogs): 100
- Pre-challenge antibody titer, IgG2 ([2]; individual dogs): 500 (3×) and 4,500 and 100
- worm burdens, Maximum ([3]; 5 dogs): 250.00
- worm burdens, Minimum ([3]; 5 dogs): 119.00
- worm burdens, Mean ([3]; 5 dogs, ASO3 control 203.8000): 177.0000
- worm burdens, Median ([3]; 5 dogs, ASO3 control 215.0000): 168.0000
- worm burden reduction in a single dog ([3]; dog A3 (ASP-2 group), dog D2 (APR-1 group), versus control mean): 42%
- worm burden, Colon, Male, Average ([3]; group average, AS03 control 5): 4
- worm burden, Colon, Female, Average ([3]; group average, AS03 control 9): 6
- worm burden, Intestine, Female, Average ([3]; group average, AS03 control 95): 79
- worm burden, Intestine, Male, Average ([3]; group average, AS03 control 96): 83
- worm burden, Total, Average ([3]; group average, AS03 control 204): 177
- worm burden, Colon, Female ([3]; individual dogs): 1 and 18 and 3 and 8 and 0
- worm burden, Colon, Male ([3]; individual dogs): 0 (2×) and 11 and 3 and 5
- worm burden, Intestine, Female ([3]; individual dogs): 76 and 41 and 69 and 87 and 122
- worm burden, Intestine, Male ([3]; individual dogs): 65 and 47 and 131 and 124 and 49
- worm burden, Total ([3]; individual dogs): 168 and 119 and 146 and 202 and 250
- fecal eggs (fecundity), in words ([3]; relative to the control group): significant reduction in fecal eggs

B1: Ac-GST: A. caninum glutathione S transferase, SEQ ID NO: 77; Pichia pastoris expressed (protein, listed as Ancylostoma caninum)
chain: MVHYKLTYFNGRGLGECARQLFALADQQYEDIRVTHEDFPEIKPNLPFGQLPLLNEDGKELAQSNAINRYLARKFGFAGKTPFEEALVDSLADQMTDYRVEIKPFVYTAYGHQKFGDLETLKKDVMLPARDKFLGFITKFLKNNPSGFLVGDSVTWIDLLLAEHASDIQSKVPEYLEGFPEVKAHMEKVRSIPKLKKWIETRPETHF
- Antibody titers, IgG1, GEOMEAN ([4]; geometric mean of group): 13,500
- Antibody titers, IgG2, GEOMEAN ([4]; geometric mean of group): 50,452
- Antibody titers, IgG1 ([4]; individual dogs, after four immunizations, L3 Extract = group E dogs vaccinated with irradiated L3): 13,500
- Antibody titers, IgG2 ([4]; individual dogs, after four immunizations, L3 Extract = group E dogs vaccinated with irradiated L3, listed as GST): 40,500 (4×) and 121,500
- worm burden reduction relative to AS03 controls ([5]; dog, in vivo, listed as GST): 40% and 41%
- Adult Hookworm Worm Counts, Intestine, Male, Average ([5]; group average, AS03 control 64): 34
- Adult Hookworm Worm Counts, Intestine, Female, Average ([5]; group average, AS03 control 71): 44
- Adult Hookworm Worm Counts, Total, Average ([5]; group average, AS03 control 137): 83
- Adult Hookworm Worm Counts, Colon, Female ([5]; individual dogs, listed as GST): 0 (2×) and 3 and 4 and 5
- Adult Hookworm Worm Counts, Colon, Male ([5]; individual dogs, listed as GST): 0 (2×) and 4 and 7 and 2
- Adult Hookworm Worm Counts, Intestine, Female ([5]; individual dogs, listed as GST): 81 and 26 and 36 (2×) and 41
- Adult Hookworm Worm Counts, Intestine, Male ([5]; individual dogs, listed as GST): 50 and 34 and 19 and 33 (2×)
- Adult Hookworm Worm Counts, Total ([5]; individual dogs, listed as GST): 131 and 67 and 55 and 80 and 81
